For orientation: % inhibition means the relative decrease from the control value, in per cent. Read a high % inhibition as strong suppression.

Here are results for 43 substances from US20230263822A1, “MODULATION OF FACTOR 11 EXPRESSION” (Ionis Pharmaceuticals, Inc., priority 2008, published 2023).

Strand notation (5' to 3'): a small letter for the sugar, then the base; units joined by * are phosphorothioate-linked, units joined directly phosphodiester-linked; [ ] holds rarer units or linkages, { } end groups; capitals alone tell only the bases. e = 2'-O-(2-methoxyethyl) (MOE); [5mC] = 5-methylcytosine; d = 2'-deoxy (DNA)

For the data set, the system named is human Factor 11 mRNA. Put plainly: Antisense inhibition of human Factor 11 in HepG2 cells, lipofectin, 75 nM (Example 1). The note with it: 75 nM antisense oligonucleotide, ~24 h, relative to untreated control cells, gapmers targeted to SEQ ID NO: 1. The format is cell-based. The protocol:
Antisense oligonucleotides targeted to a Factor 11 nucleic acid were tested for their effects on Factor 11 mRNA in vitro. Cultured HepG2 cells at a density of 10,000 cells per well were transfected using lipofectin reagent with 75 nM antisense oligonucleotide. After a treatment period of approximately 24 hours, RNA was isolated from the cells and Factor 11 mRNA levels were measured by quantitative real time PCR. Factor 11 mRNA levels were adjusted according to total RNA content, as measured by RIBOGREEN. Results are presented as percent inhibition of Factor 11, relative to untreated control cells.
The chimeric antisense oligonucleotides in Tables 1 and 2 were designed as 5-10-5 MOE gapmers. The gapmers are 20 nucleotides in length, wherein the central gap segment is comprised of 10 2′-deoxynucleotides and is flanked on both sides (in the 5′ and 3′ directions) by wings comprising 5 nucleotides each. Each nucleotide in the 5′ wing segment and each nucleotide in the 3′ wing segment has a 2′-MOE modification. The internucleoside linkages throughout each gapmer are phosphorothioate (P=S) linkages. All cytidine residues throughout each gapmer are 5-methylcytidines. “Target start site” indicates the 5′-most nucleotide to which the gapmer is targeted. “Target stop site” indicates the 3′-most nucleotide to which the gapmer is targeted. Each gapmer listed in Table 1 is targeted to SEQ TD NO: 1 (GENBANK Accession No. NM_000128.3) and each gapmer listed in Table 2 is targeted to SEQ TD NO: 2 (GENBANK Accession No. NT_022792.17, truncated from 19598000 to 19624000).

“412228 (antisense eA*eT*eG*eT*eG*dT*dA*dT*d[5mC]*d[5mC]*dA*dG*dA*dG*dA*eT*eG*e[5mC]*e[5mC]*eT) [compound 412228]”: the “% inhibition” value stood at 71%. Take “412229 (antisense eG*eT*eA*e[5mC]*eA*d[5mC]*dT*d[5mC]*dA*dT*dT*dA*dT*d[5mC]*d[5mC]*eA*eT*eT*eT*eT) [compound 412229]”: the “% inhibition” value was 64%. With “412230 (antisense eG*eA*eT*eT*eT*dT*dG*dG*dT*dG*dG*dT*dA*d[5mC]*dA*e[5mC]*eT*e[5mC]*eA*eT) [compound 412230]”, the “% inhibition” value worked out at 52%. Regarding “412231 (antisense eT*e[5mC]*e[5mC]*eT*eG*dG*dG*d[5mC]*dT*dT*dG*dA*dT*dT*dT*eT*eG*eG*eT*eG) [compound 412231]”, the “% inhibition” value was 74%. Then “412232 (antisense eG*eG*e[5mC]*e[5mC]*eA*d[5mC]*dT*d[5mC]*dA*d[5mC]*d[5mC]*dA*d[5mC]*dG*dA*eA*e[5mC]*eA*eG*eA) [compound 412232]”, with 80%. Then “412233 (antisense eT*eG*eT*e[5mC]*eT*d[5mC]*dT*dG*dA*dG*dT*dG*dG*dG*dT*eG*eA*eG*eG*eT) [compound 412233]”, with 64%; and “412234 (antisense eG*eT*eT*eT*e[5mC]*d[5mC]*dA*dA*dT*dG*dA*dT*dG*dG*dA*eG*e[5mC]*e[5mC]*eT*e[5mC]) [compound 412234]”, with 60%; and “412235 (antisense eA*eT*eA*eT*e[5mC]*d[5mC]*dA*d[5mC]*dT*dG*dG*dT*dT*dT*d[5mC]*e[5mC]*eA*eA*eT*eG) [compound 412235]”, with 57%. On to “412236 (antisense e[5mC]*e[5mC]*eA*eT*eA*dG*dA*dA*dA*d[5mC]*dA*dG*dT*dG*dA*eG*e[5mC]*eG*eG*e[5mC]) [compound 412236]”, for which the “% inhibition” value is reported as 72%. With “412237 (antisense eT*eG*eA*e[5mC]*eT*d[5mC]*dT*dA*d[5mC]*d[5mC]*d[5mC]*d[5mC]*dA*dT*dA*eG*eA*eA*eA*e[5mC]) [compound 412237]”, the “% inhibition” value came to 48%. “412238 (antisense e[5mC]*eG*e[5mC]*eA*eA*dA*dA*dT*d[5mC]*dT*dT*dA*dG*dG*dT*eG*eA*e[5mC]*eT*e[5mC]) [compound 412238]”: the “% inhibition” value amounted to 71%. Then “412239 (antisense eT*eT*e[5mC]*eA*eG*dA*dT*dT*dG*dA*dT*dT*dT*dA*dA*eA*eA*eT*eG*e[5mC]) [compound 412239]”, with 43%. For “412240 (antisense eT*eG*eA*eA*e[5mC]*d[5mC]*d[5mC]*d[5mC]*dA*dA*dA*dG*dA*dA*dA*eG*eA*eT*eG*eT) [compound 412240]”, the “% inhibition” value is listed as 32%. Then “412241 (antisense eT*eA*eT*eT*eA*dT*dT*dT*d[5mC]*dT*dT*dG*dA*dA*d[5mC]*e[5mC]*e[5mC]*e[5mC]*eA*eA) [compound 412241]”, with 41%; and “412242 (antisense eA*eA*e[5mC]*eA*eA*dG*dG*d[5mC]*dA*dA*dT*dA*dT*d[5mC]*dA*eT*eA*e[5mC]*e[5mC]*e[5mC]) [compound 412242]”, with 49%.

Consider “412243 (antisense eT*eT*e[5mC]*e[5mC]*eA*dG*dT*dT*dT*d[5mC]*dA*dA*d[5mC]*dA*dA*eG*eG*e[5mC]*eA*eA) [compound 412243]”, for which the “% inhibition” value worked out at 70%. For the substance “412244 (antisense eG*eA*eA*eG*eG*d[5mC]*dA*dG*dG*d[5mC]*dA*dT*dA*dT*dG*eG*eG*eT*e[5mC]*eG) [compound 412244]”, the “% inhibition” value is 53%. Then “412245 (antisense eG*eT*e[5mC]*eA*e[5mC]*dT*dA*dA*dG*dG*dG*dT*dA*dT*d[5mC]*eT*eT*eG*eG*e[5mC]) [compound 412245]”, with 75%. As to “412246 (antisense eA*eG*eA*eT*e[5mC]*dA*dT*d[5mC]*dT*dT*dA*dT*dG*dG*dG*eT*eT*eA*eT*eT) [compound 412246]”, the “% inhibition” value amounted to 68%. “412247 (antisense eT*eA*eG*e[5mC]*e[5mC]*dG*dG*d[5mC]*dA*d[5mC]*dA*dG*dA*dT*d[5mC]*eA*eT*e[5mC]*eT*eT) [compound 412247]”: the “% inhibition” value was determined as 75%.

On to “412248 (antisense e[5mC]*e[5mC]*eA*eG*eA*dT*dG*d[5mC]*d[5mC]*dA*dG*dA*d[5mC]*d[5mC]*dT*e[5mC]*eA*eT*eT*eG) [compound 412248]”, for which the “% inhibition” value came to 53%. On to “412249 (antisense e[5mC]*eA*eT*eT*e[5mC]*dA*d[5mC]*dA*d[5mC]*dT*dG*d[5mC]*dT*dT*dG*eA*eG*eT*eT*eT) [compound 412249]”, for which the “% inhibition” value came out at 55%.

With “412250 (antisense eT*eG*eG*e[5mC]*eA*d[5mC]*dA*dG*dT*dG*dA*dA*d[5mC]*dT*d[5mC]*eA*eA*e[5mC]*eA*e[5mC]) [compound 412250]”, the “% inhibition” value was determined as 63%. As to “412251 (antisense e[5mC]*eT*eA*eG*e[5mC]*dA*dT*dT*dT*dT*d[5mC]*dT*dT*dA*d[5mC]*eA*eA*eA*e[5mC]*eA) [compound 412251]”, the “% inhibition” value is 58%.

For “412252 (antisense eT*eT*eA*eT*eG*dG*dT*dA*dA*dT*dT*d[5mC]*dT*dT*dG*eG*eA*e[5mC]*eT*e[5mC]) [compound 412252]”, the “% inhibition” value is given as 39%. Then “412253 (antisense eA*eA*eA*eT*eA*dT*dT*dG*d[5mC]*d[5mC]*dT*dT*dA*dT*dG*eG*eT*eA*eA*eT) [compound 412253]”, with 20%; and “412254 (antisense eT*eA*eT*e[5mC]*eT*dG*d[5mC]*d[5mC]*dT*dA*dT*dA*dT*dA*dG*eT*eA*eA*eT*e[5mC]) [compound 412254]”, with 16%. Then “412255 (antisense eG*e[5mC]*e[5mC]*eA*e[5mC]*dT*dA*d[5mC]*dT*dT*dG*dG*dT*dT*dA*eT*eT*eT*eT*e[5mC]) [compound 412255]”, with 38%; and “412256 (antisense eA*eA*e[5mC]*eA*eA*dA*dT*d[5mC]*dT*dA*dT*dT*dT*dA*dT*eG*eG*eT*eG*eG) [compound 412256]”, with 39%.

In the case of “412257 (antisense e[5mC]*eT*eG*e[5mC]*eA*dA*dA*dA*dT*dG*dG*dT*dG*dA*dA*eG*eA*e[5mC]*eT*eG) [compound 412257]”, the “% inhibition” value is on record as 57%. For “412258 (antisense eG*eT*eG*eT*eA*dG*dA*dT*dT*d[5mC]*d[5mC]*dT*dG*d[5mC]*dA*eA*eA*eA*eT*eG) [compound 412258]”, the “% inhibition” value worked out at 44%.

For “412259 (antisense eT*eT*eT*eT*e[5mC]*dA*dG*dG*dA*dA*dA*dG*dT*dG*dT*eA*eT*e[5mC]*eT*eT) [compound 412259]”, the “% inhibition” value stood at 37%. For the substance “412260 (antisense e[5mC]*eA*e[5mC]*eA*eA*dA*dT*d[5mC]*dA*dT*dT*dT*dT*dT*d[5mC]*eA*eG*eG*eA*eA) [compound 412260]”, the “% inhibition” value worked out at 27%.

As for “412261 (antisense eT*e[5mC]*e[5mC]*e[5mC]*eA*dA*dG*dA*dT*dA*dT*dT*dT*dT*dA*eA*eA*eT*eA*eA) [compound 412261]”, the “% inhibition” value is given as 3%. Then “412262 (antisense eA*eA*eT*eG*eA*dG*dA*dT*dA*dA*dA*dT*dA*dT*dT*eT*eG*e[5mC]*eA*e[5mC]) [compound 412262]”, with 34%; and “412263 (antisense eT*eG*eA*eA*eA*dG*d[5mC]*dT*dA*dT*dG*dT*dG*dG*dT*eG*eA*e[5mC]*eA*eA) [compound 412263]”, with 33%.

With “412264 (antisense e[5mC]*eA*e[5mC]*eA*e[5mC]*dT*dT*dG*dA*dT*dG*dA*dA*dT*dT*eG*eT*eA*eT*eA) [compound 412264]”, the “% inhibition” value is recorded as 27%. Consider “413460 (antisense eT*eA*e[5mC]*e[5mC]*eT*dT*dG*dA*dG*dA*dG*dA*dA*dT*dT*eG*e[5mC]*eT*eT*eG) [compound 413460]”, for which the “% inhibition” value stood at 40%.

For the substance “413461 (antisense eG*eT*e[5mC]*eA*eG*dA*dA*dA*dT*dA*dT*dA*d[5mC]*d[5mC]*dT*eT*eG*eA*eG*eA) [compound 413461]”, the “% inhibition” value is recorded as 39%. On to “413462 (antisense eA*eT*e[5mC]*eT*eT*dA*dG*dT*dA*dT*dG*dT*d[5mC]*dA*dG*eA*eA*eA*eT*eA) [compound 413462]”, for which the “% inhibition” value is reported as 12%. As to “413463 (antisense eG*eA*eG*eT*e[5mC]*dA*d[5mC]*dA*d[5mC]*dA*dT*dT*d[5mC]*dA*d[5mC]*e[5mC]*eA*eG*eA*eA) [compound 413463]”, the “% inhibition” value stood at 74%. Then “413464 (antisense eG*eT*eG*eA*eG*d[5mC]*dA*dT*dT*dG*d[5mC]*dT*dT*dG*dA*eA*eA*eG*eA*eA) [compound 413464]”, with 42%; and “413465 (antisense e[5mC]*eT*eT*eA*eT*dT*dT*dG*dG*dT*dG*dT*dG*dA*dG*e[5mC]*eA*eT*eT*eG) [compound 413465]”, with 80%.
